Test system: ovalbumin-induced constriction of respiratory tract
Experiment: Respiratory tract constriction suppressing action, intravenous administration (Test Example 3)
Assay type: in vivo, Hartley guinea pigs
Conditions: ovalbumin-immunized guinea pigs, administered from cannula in hind leg vein, measured for 15 minutes
Method: Four-week old Hartley guinea pigs (male) were immunized by intraperitoneal administration of ovalbumin (Sigma, Grade V) in amounts of 1 mg for each animal on the day on which the experiment was started, 3 mg for each animal after 2 days, and 10 mg for each animal after 4 days. Twelve to fourteen days after the final immunization, the ovalbumin-immunized guinea pigs were anesthetized by intraperitoneal administration of about 40 mg/kg of pentobarbital (Somnopentyl), and the tracheas were taken out. Subsequently, a cannula (SP-110, Natsume) was inserted into each trachea, and one end of the cannula was connected to an artificial respirator (Model-b83, Harvard). The aeration conditions were set at 6 ml per kilogram and 60 times per 1 minute. Further, a cannula for medicament administration (JMS wing needle 23G 3/4) was inserted into a hind leg vein. Myoblock (Organon Technica) was administered in an amount of 0.5 mg/kg from the cannula inserted into the hind leg vein to stop the spontaneous breathing, and after 2 or 3 minutes, 0.3 mg/kg of ovalbumin was administered to induce constriction of respiratory tract. The increase of airway resistance value 2 minutes after the induction (measurement apparatuses: pressure transducer TR-603T, respiratory amplifier AR-601G, and recorder RTA-3100, Nihon Kohden Corp.) was confirmed to be above 80 cm H2O or higher, and then, a solution of a test medicament was administered from the cannula inserted into the hind leg vein, and the airway resistance value was continuously measured for 15 minutes after the administration to determine the effect.

Q: How did the “improvement of constriction of respiratory tract (airway resistance value)” value (from here on “improvement”) turn out when `Cl.c1cc2c3c(cncc3c1)CCN2C1CCNCC1` [Example 11] was run?
A: Its value is “significantly improved the constriction of respiratory tract”.

Q: For `Cl.NCCN1CCC(N2CCc3cncc4cccc2c34)CC1` [Example 14], which “improvement” value is on record?
A: Its value is “significantly improved the constriction of respiratory tract”.

Q: With `Cl.NCCCN1CCC(N2CCc3cncc4cccc2c34)CC1` [Example 15] as the compound, how does the “improvement” value read?
A: Its value is “significantly improved the constriction of respiratory tract”.

Test system: intraocular pressure
Experiment: Intraocular pressure reducing action (Test Example 4)
Assay type: in vivo, Japanese white rabbit
Conditions: rabbit, 50 μl of aqueous solution dropped to the left eye
Method: A Japanese white rabbit having a body weight of about 2 kg was placed in a positioner and naturalized for one week before the experiment. An ophthalmologic local anesthesant (Benoxil) was administered to the left eye, and then intraocular pressure was measured by using a tonometer (Classic 30, Solan). The initial value of the intraocular pressure was measured, then 50 μl of an aqueous solution of a test compound was dropped to the left eye at various concentrations, and the intraocular pressure was measured with passage of time.

Q: `Cl.c1cc2c3c(cncc3c1)CCN2C1CCNC1` (stereo not drawn) [Example 1] was tested. Which “intraocular pressure reducing action” value did it give?
A: The value was “significant intraocular pressure reducing action”.

Q: With `Cl.c1cc2c3c(cncc3c1)CCN2C1CCNCC1` [Example 11] as the compound, how does the “intraocular pressure reducing action” value read?
A: Its value is “significant intraocular pressure reducing action”.

Q: `Cl.OCCN1CCC(N2CCc3cncc4cccc2c34)CC1` [Example 12] was tested. Which “intraocular pressure reducing action” value did it give?
A: The value was “significant intraocular pressure reducing action”.

Q: With `Cl.OCCCN1CCC(N2CCc3cncc4cccc2c34)CC1` [Example 13] as the compound, how does the “intraocular pressure reducing action” value read?
A: Its value is “significant intraocular pressure reducing action”.

Q: With `Cl.NCCN1CCC(N2CCc3cncc4cccc2c34)CC1` [Example 14] as the compound, how does the “intraocular pressure reducing action” value read?
A: The value was “significant intraocular pressure reducing action”.

Q: For `Cl.NCCCN1CCC(N2CCc3cncc4cccc2c34)CC1` [Example 15], which “intraocular pressure reducing action” value is on record?
A: The value was “significant intraocular pressure reducing action”.

Q: Which “intraocular pressure reducing action” value does the source give for `Cl.N#CCN1CCC(N2CCc3cncc4cccc2c34)CC1` [Example 18] here?
A: Its value is “significant intraocular pressure reducing action”.

Q: Which “intraocular pressure reducing action” value does the source give for `Cl.N[C@H]1CC[C@H](N2CCc3cncc4cccc2c34)CC1` [Example 21] here?
A: Its value is “significant intraocular pressure reducing action”.

Q: How did the “intraocular pressure reducing action” value turn out when `Cl.OCCN[C@H]1CC[C@H](N2CCc3cncc4cccc2c34)CC1` [Example 22] was run?
A: The value was “significant intraocular pressure reducing action”.

Q: With `Cl.N[C@H]1CC[C@@H](N2CCc3cncc4cccc2c34)CC1` [Example 31] as the compound, how does the “intraocular pressure reducing action” value read?
A: The value was “significant intraocular pressure reducing action”.

Q: With `CC(=O)NCCCN1CCC(N2CCc3cncc4cccc2c34)CC1` [Example 47] as the compound, how does the “intraocular pressure reducing action” value read?
A: Its value is “significant intraocular pressure reducing action”.

Q: With `CN1CCC(N2CCc3cncc4cccc2c34)CC1` [Example 52] as the compound, how does the “intraocular pressure reducing action” value read?
A: The value was “significant intraocular pressure reducing action”.

Q: For `CNCCN1CCC(N2CCc3cncc4cccc2c34)CC1` [Example 57], which “intraocular pressure reducing action” value is on record?
A: Its value is “significant intraocular pressure reducing action”.

Q: With `Cl.Oc1ncc2c3c(cccc13)N(C1CCNCC1)CC2` [Example 62] as the compound, how does the “intraocular pressure reducing action” value read?
A: The value was “significant intraocular pressure reducing action”.

Q: How did the “intraocular pressure reducing action” value turn out when `Cl.OCCN1CCC(N2CCc3cnc(O)c4cccc2c34)CC1` [Example 63] was run?
A: Its value is “significant intraocular pressure reducing action”.

Q: With `Cl.OCCCN1CCC(N2CCc3cnc(O)c4cccc2c34)CC1` [Example 64] as the compound, how does the “intraocular pressure reducing action” value read?
A: The value was “significant intraocular pressure reducing action”.

Q: For `CC(=O)NCCN1CCC(N2CCc3cnc(O)c4cccc2c34)CC1` [Example 67], which “intraocular pressure reducing action” value is on record?
A: Its value is “significant intraocular pressure reducing action”.

Q: With `CCC(=O)NCCN1CCC(N2CCc3cnc(O)c4cccc2c34)CC1` [Example 68] as the compound, how does the “intraocular pressure reducing action” value read?
A: Its value is “significant intraocular pressure reducing action”.

Q: With `CC(=O)NCCCN1CCC(N2CCc3cnc(O)c4cccc2c34)CC1` [Example 72] as the compound, how does the “intraocular pressure reducing action” value read?
A: Its value is “significant intraocular pressure reducing action”.

Q: `CCC(=O)NCCCN1CCC(N2CCc3cnc(O)c4cccc2c34)CC1` [Example 73] was tested. Which “intraocular pressure reducing action” value did it give?
A: The value was “significant intraocular pressure reducing action”.

Q: How did the “intraocular pressure reducing action” value turn out when `CC(C)(C)C(=O)NCCCN1CCC(N2CCc3cnc(O)c4cccc2c34)CC1` [Example 76] was run?
A: Its value is “significant intraocular pressure reducing action”.

Q: Which “intraocular pressure reducing action” value does the source give for `N[C@H]1CC[C@H](N2CCc3cnc(O)c4cccc2c34)CC1` [Example 77] here?
A: The value was “significant intraocular pressure reducing action”.

Q: Which “intraocular pressure reducing action” value does the source give for `Cl.OCCN[C@H]1CC[C@H](N2CCc3cnc(O)c4cccc2c34)CC1` [Example 78] here?
A: The value was “significant intraocular pressure reducing action”.

Q: Which “intraocular pressure reducing action” value does the source give for `Cl.OCCCN[C@H]1CC[C@H](N2CCc3cnc(O)c4cccc2c34)CC1` [Example 79] here?
A: The value was “significant intraocular pressure reducing action”.

Q: With `CC(=O)NCCN[C@H]1CC[C@H](N2CCc3cnc(O)c4cccc2c34)CC1.Cl` [Example 82] as the compound, how does the “intraocular pressure reducing action” value read?
A: The value was “significant intraocular pressure reducing action”.

Q: With `CCC(=O)NCCN[C@H]1CC[C@H](N2CCc3cnc(O)c4cccc2c34)CC1.Cl` [Example 83] as the compound, how does the “intraocular pressure reducing action” value read?
A: The value was “significant intraocular pressure reducing action”.

Q: For `CCCC(=O)NCCN[C@H]1CC[C@H](N2CCc3cnc(O)c4cccc2c34)CC1.Cl` [Example 84], which “intraocular pressure reducing action” value is on record?
A: Its value is “significant intraocular pressure reducing action”.

Q: How did the “intraocular pressure reducing action” value turn out when `CC(=O)NCCCN[C@H]1CC[C@H](N2CCc3cnc(O)c4cccc2c34)CC1.Cl` [Example 87] was run?
A: Its value is “significant intraocular pressure reducing action”.

Q: For `CCC(=O)NCCCN[C@H]1CC[C@H](N2CCc3cnc(O)c4cccc2c34)CC1.Cl` [Example 88], which “intraocular pressure reducing action” value is on record?
A: The value was “significant intraocular pressure reducing action”.

Test system: ovalbumin-induced constriction of respiratory tract
Experiment: Respiratory tract constriction suppressing action, administration by inhalation (Test Example 3)
Assay type: in vivo, Hartley guinea pigs
Conditions: ovalbumin-immunized guinea pigs, 2 ml solution by inhalation over 5 minutes
Method: Four-week old Hartley guinea pigs (male) were immunized by intraperitoneal administration of ovalbumin (Sigma, Grade V) in amounts of 1 mg for each animal on the day on which the experiment was started, 3 mg for each animal after 2 days, and 10 mg for each animal after 4 days. Further, the respiratory tract constriction suppression action of the test compounds was also evaluated by inhalation. Twelve to fourteen days after the final sensitization, 10 mg/kg of pyrilamine (Sigma), 5 mg/kg of indomethacin (Wako), or 0.1 mg/kg of propranolol (Sigma) was intraperitoneally administered. Then, 30 minutes after the administration, a 0.1% ovalbumin aqueous solution was inhaled by using a pressurization type nebulizer (PARI-IS2) to induce constriction of the respiratory tract. Ten minutes after the induction, 2 ml of a solution of a test compound prepared at various concentrations was filled in the aforementioned nebulizer, and administered by inhalation over 5 minutes. After the administration of pyrilamine and other drugs, airway resistance value was continuously measured to determine effectiveness.

Q: How did the “improvement” value turn out when `Cl.c1cc2c3c(cncc3c1)CCN2C1CCNCC1` [Example 11] was run?
A: The value was “significantly improved the constriction of respiratory tract”.

Q: Which “improvement” value does the source give for `Cl.NCCN1CCC(N2CCc3cncc4cccc2c34)CC1` [Example 14] here?
A: The value was “significantly improved the constriction of respiratory tract”.

Q: How did the “improvement” value turn out when `Cl.NCCCN1CCC(N2CCc3cncc4cccc2c34)CC1` [Example 15] was run?
A: The value was “significantly improved the constriction of respiratory tract”.

Test system: phosphorylated myosin regulatory light chain in neutrophils
Experiment: Action on amount of phosphorylated myosin regulatory light chain in the cells (Test Example 1)
Assay type: cell-based
Conditions: Neutrophil, 5 min; human neutrophils, reaction at 25° C. for 5 minutes; read-out: concentration at which the phosphorylation of myosin regulatory light chain is inhibited (IC50)
Method: A volume of 50 to 100 ml of peripheral blood collected from healthy volunteers was centrifuged by using Mono-Poly separator solution (Dainippon Pharmaceutical) to prepare a neutrophil containing fraction. The neutrophils were washed with PBS(−) and resuspended in Hanks' Balanced Salt Solution (HBSS+, Gibco) to prepare a cell suspension (8×10^6/ml). The cell suspension was diluted to 5×10^6/ml, introduced into Eppendorf tubes in a volume of 0.4 ml each, then 0.1 ml each of solutions of a test compound at various concentrations were added to the suspension and allowed to react at 25° C. for 5 minutes. After the reaction, 0.1 ml of trichloroacetic acid solution was added to each reaction, the reaction mixture was gently shaken and centrifuged at 12,000 rpm (4° C., 5 minutes), and the supernatant was removed. Subsequently, 3 μl of 1 M Tris solution was added to the residue, the mixture was further mixed with 50 μl of extraction buffer (8 M urea, 0.02% 2-mercaptoethanol, 0.002% bromophenol blue) and left stand at room temperature for 1 hour. Then, the reaction mixture was loaded on a spin column (0.45 μm, Millipore) to remove the insoluble solids and a sample buffer for SDS polyacrylamide gel electrophoresis (25 mM, Tris-HCl pH 6.8, 2.5% 2-mercaptoethanol, 2% sodium dodecylsulfate, 5% sucrose, 0.002% bromophenol blue as final concentrations) was added, and 10 μl of each sample was subjected to electrophoresis.
The gel after the electrophoresis was blotted on a nitrocellulose membrane (BioRad), blocked with 5% skim milk, and reacted successively with antibodies pLC1 (Sakurada K. et al, Am. J. Physiol., 274, C1563–C1572 (1998)), which specifically recognize the phosphorylated myosin regulatory light chain, and donkey anti-mouse IgG (Chemicon) conjugated with horseradish peroxidase. The band of the phosphorylated myosin regulatory light chain was detected on a film by using ECL Plus Kit (Amersham Pharmacia Biotech). This band was subjected to quantification using a densitometer. By using this value, the inhibitory ratio (%) for phosphorylation of the myosin regulatory light chain was calculated by using the following equation. Phosphorylation inhibition ratio (%)=1−(Band intensity of phosphorylated myosin regulatory light chain with addition of the test compound/Band intensity of phosphorylated myosin regulatory light chain without addition of the test compound)×100
Further, the phosphorylation inhibition ratio was calculated with changing the concentrations of the test compound, and a compound concentration providing an inhibition ratio of 50% was obtained as IC50.

Q: How did the IC50 turn out when `Clc1ncc2c3c(cccc13)N(C1CCNCC1)CC2` [Example 61, 6-Chloro-1-(piperidin-4-yl)-2,3-dihydro-1H-1,5-diazaphenalene] was run?
A: The IC50 was ≤ 40 µM.
